In patent US10239923B2, “Specific amyloid beta binding peptides and the use of same for treating and diagnosing alzheimer's dementia” (Forschungszentrum Juelich GmbH, priority 2015, dated 2019):
Square brackets hold non-standard residues; d marks the D form. Peptide text beside a SMILES is read from it.

Legend:
Aβ1-42 [1] = target: T1, Aβ1-42 (Homo sapiens, UniProt P05067); assay: ThT test, modulation of Aβ1-42 aggregation; type: biochemical; conditions: 10 μM Aβ1-42, equimolar peptide, versus Aβ1-42 alone = 100%
T1 sequence (P05067 672-713 limits assumed): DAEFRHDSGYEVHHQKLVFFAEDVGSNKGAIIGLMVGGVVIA
Source text: FIG. 3: The average relative fluorescence from seven independently performed ThT experiments with standard deviation is shown. The dye Thioflavin T (ThT) binds to β-pleated sheet structures in the batch and thereupon changes its fluorescence spectrum. […] The time in which the logarithmic rise of the fluorescence signal transitioned into a stationary phase was set to 100%.

PC-12 cells = assay: MTT reduction test, Aβ1-42-induced cell toxicity; type: cell-based; conditions: batch containing only Mosd1, 24 hours, 37° C.
Protocol: The samples were placed in the culture medium of the cells and were incubated over 24 hours with the cells at 37° C. The viability of the cells was then determined on the basis of an MTT test. Here, a metabolic reactant was supplied to the cells, which reactant could be converted by metabolically active cells (living cells). Formazan crystals are the product of this conversion and can be dissolved. The coloration of the medium after solubilization corresponds to the conversion rate of the reactant and therefore the viability of the cells. Untreated cells (medium, white chequered pattern) served as living control, and the proportion of vital cells was defined as 100%. The values of the other batches were normalized to this value.

[2] = tested on: Neuro-2a cells stably transfected with human APP695; assay: Influence on APP-expressing cells; type: cell-based, murine; conditions: incubation with 10 μM or 100 μM Mosd1
Protocol: FIG. 9: The murine neuroblastoma cell line Neuro-2a serves as a model for neuronal cells and is thus suitable for analyzing the symptoms of AD. […] In this way, the influence of naturally occurring Aβ1-42 species can be examined directly in neuronal cells. In the experiment, Neuro-2a cells were cultivated without APP parallel to those with the APP transfection. […] By incubation with 10 μM or 100 μM Mosd1, however, this pathological phenotype can be reversed, and the cells develop in accordance with the physiological phenotype corresponding to wild-type Neuro-2a cells. This means that the cell number increases and the cells accumulate, have a polygonal shape and form numerous cell contact points and spurs (middle and right-hand image).

Aβ1-42 [3] = target: T1, Aβ1-42; assay: TEM of Aβ1-42 incubated with and without Mosd1; type: biochemical; conditions: 10 μM Aβ1-42 with 10 μM Mosd1, 24 hours, room temperature
Source text: The scale bars correspond to 0.25 μm.

[4] = target: Aβ1-42 species of different size (Homo sapiens, UniProt P05067); assay: Density gradient centrifugation, tris-tricine SDS gel and silver staining of Aβ1-42 species; type: biochemical
Aβ1-42 species of different size, sequence (P05067 672-713 limits assumed): as above
Protocol: The batch was then incubated either with or without addition of peptide for a further 40 minutes and was then placed on an iodixanol density gradient. The gradient was then centrifuged, wherein the contents of the sample (Aβ1-42 species of different size) diffused within the gradient in accordance with their size and shape. The gradient was fractionated after centrifugation into 15 fractions (1-15), and the first 14 individual fractions were applied to a tris-tricine SDS gel. The contents per fraction were separated electrophoretically. […] The batch was then incubated either without (A) or with addition of different concentrations of Mosd1 (B=10 μM Mossd1; C=20 μM Mosd1; D=40 μM Mosd1; E=80 μM Mosd1) for a further 40 minutes and was then placed on an iodixanol density gradient. The gradient was then centrifuged, wherein the contents of the sample (Aβ1-42 species of different size) diffused within the gradient in accordance with their size and shape. The gradient was fractionated after centrifugation (1-15), and the individual fractions were applied to a tris-tricine SDS gel. The contents per fraction were separated electrophoretically.

[5] = 80 μM Aβ1-42 pre-incubated […], 40 μM peptide for 40 minutes

Question: With CSCC[C@@H](NC(=O)[C@@H](Cc1c[nH]cn1)NC(=O)[C@@H](Cc1ccc(O)cc1)NC(=O)[C@@H](CO)NC(=O)[C@H](NC(=O)[C@@H](CC(C)C)NC(=O)[C@@H](Cc1ccc(O)cc1)NC(=O)[C@@H](CO)NC(=O)[C@H](N)Cc1ccc(O)cc1)[C@H](C)O)C(=O)N[C@@H](C(=O)N[C@H](Cc1c[nH]c2ccccc12)C(=O)N[C@H](CCCNC(=N)N)C(N)=O)C(C)C [Mosd1] (H-[dY][dS][dY][dL][dT][dS][dY][dH][dM][dV][dW][dR]-NH2) as the molecule, how does the “relative ThT fluorescence (formation of β-pleated sheet structures)” value (Aβ1-42 [1]) read?
Answer: reduce the relative fluorescence

Question: What about the “viability of PC-12 cells, peptide alone” value (PC-12 cells) of the same molecule?
Answer: no influence

Question: And the “pathological phenotype of APP-expressing cells” value [2]?
Answer: reversed

Question: And the “aggregate morphology in TEM” value (Aβ1-42 [3])?
Answer: formation of large, high-molecular aggregates

Question: And the “oligomeric Aβ1-42 species (fractions 4-7)” value [4, 5]?
Answer: reduce

Question: And the “proportions of high-molecular Aβ1-42 species (fractions 10-14)” value [4, 5]?
Answer: increase

Question: What about the “signal strength in fractions 1-2 (monomeric Aβ)” value ([4]; concentrations higher than 20 μM Mosd1) of the same molecule?
Answer: reduction of the signal strength

Question: What about the “proportion of small Aβ1-42 species and toxic oligomers” value ([4]; higher concentrations, 40 μM and 80 μM Mosd1, 80 μM Aβ1-42) of the same molecule?
Answer: reduce the proportion of small Aβ1-42 species and toxic oligomers considerably

Question: And the “proportion of toxic oligomers (fractions 4-7)” value ([4]; lower concentrations, 10 μM and 20 μM Mosd1, 80 μM Aβ1-42)?
Answer: reduce the proportion of toxic oligomers
